What is called EC50 is the concentration at which the effect is half-maximal.

The target of one experiment is KCNQ3* (Homo sapiens, UniProt O43525, A315T). In words: [3H]GABA competition binding to oocytes expressing KCNQ3*. The settings on record: 100 μM, 10 μM 3H-GABA. As for the experimental part: (§1) Each group of oocytes was placed in a round-bottomed, 15-ml falcon tube, washed with ND96, and then resuspended in ND96 containing 10 μM γ-[2,3-^3H(N)]-aminobutyric acid (^3H-GABA) (Perkin Elmer, Waltham, Mass.) at 25-40 Ci/mMol specific activity either alone, or with 100 μM 2FPG or 100 μM 3FMSG, for a 30 minute incubation at room temperature. Oocytes were then washed four times in 16° C. ND96, transferred to individual wells in a 96 well plate and lysed in 0.2% SDS in ND96. Each oocyte lysate was transferred to a scintillation vial containing 5 ml Cytoscint scintillation cocktail fluid (MP Biomedicals, Santa Ana, Calif.). Vials were capped, shaken, and then allowed to sit at room temperature for at least 30 min before scintillation counting in a Beckmann Coulter LS6500 liquid scintillation counter.

Another experiment concerns the target KCNQ2 (Homo sapiens, UniProt O43526). In words: [3H]GABA competition binding to oocytes expressing KCNQ2. The settings on record: 100 μM, 10 μM 3H-GABA. As for the experimental part: as §1
In a further experiment the target is T1, GLRA1 (Homo sapiens, UniProt P23415).
T1 sequence (P23415 29-457): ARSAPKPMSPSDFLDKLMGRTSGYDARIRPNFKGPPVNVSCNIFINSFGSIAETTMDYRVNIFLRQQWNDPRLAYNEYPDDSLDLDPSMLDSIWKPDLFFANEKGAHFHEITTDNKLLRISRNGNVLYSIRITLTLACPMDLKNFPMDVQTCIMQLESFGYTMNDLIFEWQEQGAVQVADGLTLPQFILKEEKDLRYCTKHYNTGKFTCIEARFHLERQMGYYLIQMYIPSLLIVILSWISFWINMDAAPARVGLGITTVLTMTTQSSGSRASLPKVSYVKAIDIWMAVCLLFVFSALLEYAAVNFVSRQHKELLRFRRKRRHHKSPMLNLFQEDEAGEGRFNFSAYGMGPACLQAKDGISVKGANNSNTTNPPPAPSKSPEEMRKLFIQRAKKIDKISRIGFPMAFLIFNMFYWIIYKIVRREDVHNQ
In words: TEVC of glycine receptor GLRA1 expressed in oocytes. It is filed as cell-based. The settings on record: for activation of GLRA1 by compound alone: 1 mM. From the text: We generated cRNA transcripts encoding human KCNQ1, KCNQ2, KCNQ3, KCNQ4, KCNQ5 or GLRA1 (NM_001146040) (GenScript, Piscataway, N.J., USA) by in vitro transcription using the T7 polymerase mMessage mMachine kit (Thermo Fisher Scientific), after vector linearization, from cDNA sub-cloned into plasmids incorporating Xenopus laevis β-globin 5′ and 3′ UTRs flanking the coding region to enhance translation and cRNA stability. We quantified cRNA by spectrophotometry. We generated mutant KCNQ2 and KCNQ3 cDNAs by site-directed mutagenesis using a QuikChange kit (Stratagene, San Diego, Calif.) and prepared the corresponding cRNAs as above. We injected defolliculated stage V and VI Xenopus laevis oocytes (Ecocyte Bioscience, Austin, Tex. and Xenoocyte, Dexter, Mich.) with KCNQ channel a subunit (5-20 ng) or GLRA1 (20 ng) cRNAs. We incubated the oocytes at 16° C. in Barth's saline solution (Ecocyte) containing penicillin and streptomycin, with daily washing, for 2-5 days prior to two-electrode voltage-clamp (TEVC) recording.
We performed TEVC at room temperature using an OC-725C amplifier (Warner Instruments, Hamden, Conn.) and pClamp10 software (Molecular Devices, Sunnyvale, Calif.) 3-5 days after cRNA injection as described in the section above. For recording, oocytes were placed in a small-volume oocyte bath (Warner) and viewed them with a dissection microscope. Chemicals were sourced from Sigma, Matrix Scientific and Santa Cruz. […] All stock solutions were diluted in bath solution on the day of experiments. KCNQ2/3 channel activation was screened for using either 30 μM or 100 μM concentrations of each of the six compounds, then dose responses were conducted as appropriate. Bath solution was (in mM): 96 NaCl, 4 KCl, 1 MgCl2, 1 CaCl2, 10 HEPES (pH 7.6). Compounds were introduced into the oocyte recording bath by gravity perfusion at a constant flow of 1 ml per minute for 3 minutes prior to recording. Pipettes were of 1-2 MΩ resistance when filled with 3 M KCl. Currents were recorded in response to voltage pulses between −120 or −80 mV and +40 mV at 20 mV intervals from a holding potential of −80 mV, to yield current-voltage relationships, current magnitude, and for quantifying activation rate. We analyzed data using Clampfit (Molecular Devices) and Graphpad Prism software (GraphPad, San Diego, Calif., USA); values are stated as mean±SEM. We plotted raw or normalized tail currents versus prepulse voltage and fitted with a single Boltzmann function: […]

The subject of the next experiment is bacteria. The settings on record: read-out: bactericidal activity EC50; cited from earlier work.

Each structure is given as a SMILES string. Some results are limits rather than exact numbers.

Turning to `CS(=O)(=O)N(CC(=O)O)c1cccc(F)c1` [3FMSG], the “competition with [3H]GABA binding to KCNQ3*” value at KCNQ3* was “able to compete out GABA binding”. Also, at KCNQ2, the “competition with [3H]GABA binding to KCNQ2” value was “able to compete out GABA binding”. Further, at GLRA1 (100 μM, 1 mM glycine), the “inhibition of glycine-activated GLRA1” value was about 40% and the “inhibition of glycine-activated GLRA1 (in words)” value is “partially inhibited”. The “activation of GLRA1 by compound alone” value on GLRA1 is given as “lack of effects”.
Consider `CCCCCCCCC/C=C/C=O` [(E)-2-dodecenal], for which the EC50 in the experiment with bacteria was over 30 µM.
In the case of `NCC(=O)O` [glycine, reference compound], the “activation of GLRA1 by compound alone” value at GLRA1 was “robust activation”.

These data come from patent US12268683B2, “Compounds and methods for synergistic activation of M channels” (THE REGENTS OF THE UNIVERSITY OF CALIFORNIA, priority 2018, dated 2025).
